The record followed here is patent US20080125318A1, “Fungicidal Mixtures Containing Enestroburin and at Least One Active Substance from the Group of Azoles” (priority 2004, published 2008).

Where two headings read alike, the source gives them in different places.

In assay [1] the test system is Botrytis cinerea. The experiment in a line: Activity against the gray mold pathogen Botrytis cinerea in the microtiter test. Format: cell-based. The following applies: day 7 after inoculation, absorption 405 nm.
Assay [2] concerns Phytophthora infestans. Format: cell-based. To be noted: day 7 after inoculation, absorption 405 nm.
The subject of assay [3] is Puccinia recondita. The experiment in a line: Protective activity against Puccinia recondita on wheat (brown rust of wheat), greenhouse. Format: in vivo, Puccinia recondita on wheat seedlings cultivar Kanzler. The following applies: sprayed 5 days before inoculation, visual rating.

As to `Cc1ccc(-c2c(Cl)nc(C#N)n2S(=O)(=O)N(C)C)cc1` [cyazofamid (II-30), 4-chloro-2-cyano-N,N-dimethyl-5-(4-methylphenyl)-1H-imidazole-1-sulfon-amide], the “Observed efficacy (%)” value in assay [1] (1 ppm single active compound) and in assay [1] (4 ppm single active compound) was 0% throughout.
Turning to `CO/C=C(/C(=O)OC)c1ccccc1CO/N=C(C)/C=C/c1ccc(Cl)cc1` [enestroburin (I), methyl 2-{2-[3-(4-chlorophenyl)-1-methylallylideneaminooxymethyl]phenyl}-3-methoxyacrylate], the “Observed efficacy (%)” value in assay [2] (2 ppm single active compound) came to 70%; in assay [2] (4 ppm single active compound) it was 82%; in assay [1] (4 ppm single active compound) it was 48%; in assay [3] (16 ppm single active compound), 22%; in assay [3] (63 ppm single active compound), 44%.
For `OC(Cc1ccccc1Cl)(Cn1nc[nH]c1=S)C1(Cl)CC1` (centres unmarked) [prothioconazole (II-19), 2-[2-(1-chlorocyclopropyl)-3-(2-chlorophenyl)-2-hydroxypropyl]-2,4-dihydro[1,2,4]triazol-3-thione], the “Observed efficacy (%)” value in assay [3] (4 ppm single active compound) was 0%.
